Measured values taken from PubChem BioAssay AID248 (DTP/NCI, 2004).
Values joined by “and” are separate entries in the source; they are usually repeats but may differ in a detail not shown here. Equal entries are not always repeated. Inconclusive results and toxic doses are left out.

Tested on: L1210 leukemia ip in BDF1 mice, survival T/C
Assay: NCI In Vivo Anticancer Drug Screen. Data for tumor model L1210 Leukemia (intraperitoneal) in B6D2F1 (BDF1) mice
Conditions: endpoint: mean survival time, higher = longer survival
In short: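 Mice bearing the transplanted tumor received compound or vehicle. Survival of the treated group was divided by that of the vehicle-treated control group to give the ratio.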

[1] = dose: 100.0 mg/kg/injection, schedule: Q01DX009 (ip), vehicle: Klucel (hydroxypropylcellulose) (HPC)
[2] = dose: 100.0 mg/kg/injection, schedule: Q04DX003 (ip), vehicle: Klucel (hydroxypropylcellulose) (HPC)
[3] = dose: 200.0 mg/kg/injection, schedule: Q01DX009 (ip), vehicle: Klucel (hydroxypropylcellulose) (HPC)
[4] = dose: 200.0 mg/kg/injection, schedule: Q01DX009 (ip), vehicle: saline
[5] = dose: 200.0 mg/kg/injection, schedule: Q04DX003 (ip), vehicle: Klucel (hydroxypropylcellulose) (HPC)
[6] = dose: 400.0 mg/kg/injection, schedule: Q01DX009 (ip), vehicle: Klucel (hydroxypropylcellulose) (HPC)
[7] = dose: 400.0 mg/kg/injection, schedule: Q01DX009 (ip), vehicle: saline
[8] = dose: 400.0 mg/kg/injection, schedule: Q04DX003 (ip), vehicle: Klucel (hydroxypropylcellulose) (HPC)

COC(=O)C1(N)CCCC1
T/C (dose: 11.0 mg/kg/injection, schedule: Q01DX Z (ip), vehicle: carboxymethylcellulose (CMC)): 94 % of control | T/C (dose: 22.0 mg/kg/injection, schedule: Q01DX Z (ip), vehicle: carboxymethylcellulose (CMC)): 107 % of control | T/C (dose: 25.0 mg/kg/injection, schedule: Q01DX009 (ip), vehicle: saline): 107 % of control | T/C (dose: 30.0 mg/kg/injection, schedule: Q01DX009 (ip), vehicle: saline): 108 % of control | T/C (dose: 30.0 mg/kg/injection, schedule: Q01DX Z (ip), vehicle: saline): 116 % of control | T/C (dose: 44.0 mg/kg/injection, schedule: Q01DX009 (ip), vehicle: saline): 121 % of control | T/C (dose: 45.0 mg/kg/injection, schedule: Q01DX Z (ip), vehicle: saline): 118 % of control | T/C (dose: 50.0 mg/kg/injection, schedule: Q01DX009 (ip), vehicle: saline): 109 % of control | T/C [1]: 95 % of control | T/C [2]: 104 % of control and 113 % of control | T/C (dose: 100.0 mg/kg/injection, schedule: Q04DX003 (ip), vehicle: saline): 102 % of control | T/C (dose: 150.0 mg/kg/injection, schedule: Q01DX009 (ip), vehicle: saline): 95 % of control | T/C (dose: 150.0 mg/kg/injection, schedule: Q01DX Z (ip), vehicle: saline): 104 % of control | T/C [3]: 104 % of control | T/C [4]: 119 % of control and 120 % of control | T/C [5]: 121 % of control and 124 % of control | T/C (dose: 200.0 mg/kg/injection, schedule: Q04DX003 (ip), vehicle: saline): 118 % of control | T/C (dose: 300.0 mg/kg/injection, schedule: Q01DX Z (ip), vehicle: carboxymethylcellulose (CMC)): 105 % of control and 115 % of control | T/C [6]: 121 % of control | T/C [7]: 98 % of control and 102 % of control | T/C (dose: 400.0 mg/kg/injection, schedule: Q01DX Z (ip), vehicle: carboxymethylcellulose (CMC)): 113 % of control | T/C (dose: 400.0 mg/kg/injection, schedule: Q04DX003 (ip), vehicle: saline): 152 % of control | T/C (dose: 500.0 mg/kg/injection, schedule: Q01DX Z (ip), vehicle: carboxymethylcellulose (CMC)): 110 % of control

NNC(=O)CSSCC(=O)NN
T/C (dose: 100.0 mg/kg/injection, schedule: Q04DX002 (ip), vehicle: Klucel (hydroxypropylcellulose) (HPC)): 101 % of control

Oc1ccc(Cl)cc1/C=N\NC(=S)Nc1ccc2cn[nH]c2c1
T/C (dose: 50.0 mg/kg/injection, schedule: Q01DX001 (ip), vehicle: carboxymethylcellulose (CMC)): 102 % of control | T/C (dose: 100.0 mg/kg/injection, schedule: Q01DX001 (ip), vehicle: carboxymethylcellulose (CMC)): 86 % of control | T/C (dose: 200.0 mg/kg/injection, schedule: Q01DX001 (ip), vehicle: carboxymethylcellulose (CMC)): 102 % of control

CC(=Nc1cccc(C)c1C)c1c(O)cc(C)oc1=O
T/C (dose: 100.0 mg/kg/injection, schedule: Q01DX009 (ip), vehicle: saline): 108 % of control | T/C [4]: 97 % of control | T/C [7]: 103 % of control

C=CCNC(=S)Nc1ncn[nH]1
T/C (dose: 75.0 mg/kg/injection, schedule: Q01DX001 (ip), vehicle: carboxymethylcellulose (CMC)): 103 % of control | T/C (dose: 150.0 mg/kg/injection, schedule: Q01DX001 (ip), vehicle: carboxymethylcellulose (CMC)): 104 % of control | T/C (dose: 300.0 mg/kg/injection, schedule: Q01DX001 (ip), vehicle: carboxymethylcellulose (CMC)): 90 % of control

C/C=C1/C[C@@H](C)[C@@](C)(O)C(=O)OCC2=CC[N+]3([O-])CC[C@@H](OC1=O)[C@@H]23 (stereo partly specified)
T/C (dose: 20.0 mg/kg/injection, schedule: Q01DX015 (ip), vehicle: saline): 98 % of control | T/C (dose: 30.0 mg/kg/injection, schedule: Q01DX015 (ip), vehicle: saline): 96 % of control | T/C (dose: 40.0 mg/kg/injection, schedule: Q01DX015 (ip), vehicle: saline): 102 % of control

O=[N+]([O-])c1ccc(NC(CO)C(O)C(O)C(O)CO)c([N+](=O)[O-])c1 (stereo unspecified)
T/C (dose: 100.0 mg/kg/injection, schedule: Q01DX001 (ip), vehicle: saline): 102 % of control | T/C (dose: 200.0 mg/kg/injection, schedule: Q01DX001 (ip), vehicle: saline): 98 % of control | T/C (dose: 400.0 mg/kg/injection, schedule: Q01DX001 (ip), vehicle: saline): 98 % of control

Cc1cccc(C(=O)O)n1.[Cu+2]
T/C (dose: 5.0 mg/kg/injection, schedule: Q01DX001 (ip), vehicle: saline): 103 % of control | T/C (dose: 10.0 mg/kg/injection, schedule: Q01DX001 (ip), vehicle: saline): 113 % of control

C=CCOc1ccccc1Cl
T/C [1]: 110 % of control | T/C [2]: 94 % of control | T/C [3]: 88 % of control | T/C [5]: 106 % of control | T/C [6]: 106 % of control | T/C [8]: 103 % of control

CC(=O)OC1C(C=C(C)C)OC2CC3(C)C4=C(CCC3(C)C2C1C)C1(C)CCC(O)C(C)(C)C1CC4 (stereo unspecified)
T/C (dose: 20.0 mg/kg/injection, schedule: Q01DX001 (sc), vehicle: steriod suspending solution): 104 % of control | T/C (dose: 40.0 mg/kg/injection, schedule: Q01DX001 (sc), vehicle: steriod suspending solution): 102 % of control | T/C (dose: 50.0 mg/kg/injection, schedule: Q01DX001 (sc), vehicle: steriod suspending solution): 101 % of control | T/C (dose: 80.0 mg/kg/injection, schedule: Q01DX001 (sc), vehicle: steriod suspending solution): 102 % of control | T/C (dose: 100.0 mg/kg/injection, schedule: Q01DX001 (sc), vehicle: steriod suspending solution): 92 % of control | T/C (dose: 160.0 mg/kg/injection, schedule: Q01DX001 (sc), vehicle: steriod suspending solution): 102 % of control | T/C (dose: 200.0 mg/kg/injection, schedule: Q01DX001 (sc), vehicle: steriod suspending solution): 97 % of control | T/C (dose: 400.0 mg/kg/injection, schedule: Q01DX001 (sc), vehicle: steriod suspending solution): 106 % of control

COc1cccc2c1C(=O)c1c(O)c3c(c(O)c1C2=O)C[C@@](O)(/C(C)=N/N1CCCCC1)C[C@@H]3OC1CC(N)C(O)C(C)O1 (stereo partly specified)
T/C (dose: 0.12 mg/kg/injection, schedule: Q01DX009 (ip), vehicle: water): 114 % of control | T/C (dose: 0.25 mg/kg/injection, schedule: Q01DX009 (ip), vehicle: water): 113 % of control | T/C (dose: 0.25 mg/kg/injection, schedule: Q04DX003 (ip), vehicle: water): 110 % of control | T/C (dose: 0.5 mg/kg/injection, schedule: Q01DX009 (ip), vehicle: water): 117 % of control | T/C (dose: 0.5 mg/kg/injection, schedule: Q04DX003 (ip), vehicle: water): 118 % of control | T/C (dose: 1.0 mg/kg/injection, schedule: Q04DX003 (ip), vehicle: water): 116 % of control | T/C (dose: 2.0 mg/kg/injection, schedule: Q01DX009 (ip), vehicle: water): 119 % of control | T/C (dose: 3.12 mg/kg/injection, schedule: Q01DX009 (ip), vehicle: saline with Tween-80): 150 % of control | T/C (dose: 4.0 mg/kg/injection, schedule: Q01DX009 (ip), vehicle: water): 114 % of control and 88 % of control | T/C (dose: 6.25 mg/kg/injection, schedule: Q01DX009 (ip), vehicle: saline with Tween-80): 123 % of control | T/C (dose: 16.0 mg/kg/injection, schedule: Q04DX003 (ip), vehicle: water): 86 % of control

NC(Cc1c[nH]c2cc(N(CCCl)CCCl)ccc12)C(=O)O (stereo unspecified)
T/C (dose: 0.25 mg/kg/injection, schedule: Q01DX Z (ip), vehicle: other): 171 % of control | T/C (dose: 0.5 mg/kg/injection, schedule: Q01DX Z (ip), vehicle: other): 188 % of control | T/C (dose: 125.0 micrograms/kg/injection, schedule: Q01DX009 (ip), vehicle: carboxymethylcellulose (CMC)): 118 % of control | T/C (dose: 500.0 micrograms/kg/injection, schedule: Q01DX009 (ip), vehicle: carboxymethylcellulose (CMC)): 167 % of control | T/C (dose: 1000.0 micrograms/kg/injection, schedule: Q01DX009 (ip), vehicle: carboxymethylcellulose (CMC)): 229 % of control

CC(=O)OCCC(=O)N1Cc2cc3ccccc3nc2C1
T/C (dose: 10.0 mg/kg/injection, schedule: Q04DX003 (ip), vehicle: alcohol): 96 % of control | T/C (dose: 20.0 mg/kg/injection, schedule: Q04DX003 (ip), vehicle: alcohol): 94 % of control | T/C (dose: 40.0 mg/kg/injection, schedule: Q04DX003 (ip), vehicle: alcohol): 96 % of control | T/C (dose: 80.0 mg/kg/injection, schedule: Q04DX003 (ip), vehicle: alcohol): 96 % of control | T/C (dose: 160.0 mg/kg/injection, schedule: Q04DX003 (ip), vehicle: alcohol): 92 % of control

CC(C)Nc1nc(Cl)nc(NC(C)C)n1
T/C (dose: 150.0 mg/kg/injection, schedule: Q01DX009 (ip), vehicle: Klucel (hydroxypropylcellulose) (HPC)): 101 % of control | T/C [5]: 96 % of control | T/C (dose: 225.0 mg/kg/injection, schedule: Q01DX009 (ip), vehicle: Klucel (hydroxypropylcellulose) (HPC)): 94 % of control | T/C (dose: 335.0 mg/kg/injection, schedule: Q01DX009 (ip), vehicle: Klucel (hydroxypropylcellulose) (HPC)): 94 % of control | T/C [8]: 94 % of control
